Data set [1] can be described thus: Lipid clearance: mouse liver tissue level and % dose remaining in liver after intravenous administration. The class given is in vivo. The conditions noted are these: mouse, liver, 0.5 mg/kg.
A further data set deals with luciferase (Luc) mRNA. In words: Luciferase expression (whole body bioluminescence) after intravenous administration to mice. The class given is in vivo. Particulars: Table 3G, intravenous, luciferase, 6 hr. timepoint, relative to MC3. The procedure, abridged: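 Luc mRNA nanoparticles were given IV at 0.5 mg/kg to groups of six mice, and whole-body bioluminescent flux was imaged 3, 6 and 24 h post-dose. Flux AUC for each lipid formulation was reported as a ratio to the MC3 reference formulation.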

Data set [2] in a line: Encapsulation efficiency of RNA in nanoparticle compositions (RIBOGREEN assay). It counts as physicochemical. An outline of the steps:
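Lipid nanoparticles (ionisable lipid:DSPC:cholesterol:PEG-DMG 50:10:38.5:1.5 mol %) carrying N1-methylpseudouridine luciferase or hEPO mRNA diluted to about 5 μg/mL in TE, pH 7.5, with or without 2% Triton X-100, 15 min at 37° C. RiboGreen fluorescence (ex ~480, em ~520 nm) blank-subtracted; free RNA = intact/disrupted signal.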

Data set [3] is described as follows: Particle size and polydispersity index of nanoparticle compositions (Zetasizer Nano ZS). The class given is physicochemical. The procedure, abridged:
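Formulations of ionizable lipid, DSPC, cholesterol and PEG-DMG (50:10:38.5:1.5 mol %) carrying Luc or hEPO mRNA with all uridines as N1-methyl pseudouridine. Dynamic light scattering in 1×PBS gave particle size and polydispersity; zeta potential read in 15 mM PBS.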

A short description of data set [4]: Chemical stability of lipids in ethanol at room temperature and 37° C. (lipid purity). The class given is physicochemical. Here is the method: Ester linkages were previously reported to trigger metabolism by esterases in vivo. (See Fukami, T. et al. Drug Metab. Pharmacokinet. 2012, 27, 466-477, the content of which is incorporated by reference herein in its entirety). […] (See Maier M. A., Mol. Ther. 2013, 21, 1570-1578, the content of which is incorporated herein in its entirety) First, the chemical stability of the lipids was evaluated by measuring ethanol stability at room temperature and 37° C. (Table 39). […] LNPs formed with compound 138 were larger, with a surface pKa>7. […] Removal of one ester function (compound 136) afforded LNPs with improved physiochemical characteristics and lower LNP surface pKa.

The test system of a further data set is modified luciferase. Nature of the data set: Luciferase expression in liver, lung, spleen and femur 6 hours after intravenous administration to mice. The conditions noted are these: 6 hours after intravenous 0.5 mpk, mice. It counts as in vivo. An outline of the steps:
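Mice (n=3) got a single 0.5 mpk IV dose of each nanoparticle composition, with MC3 and PBS controls alongside. Organ luminescence flux was read 6 h post-dose.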

The next data set relates to IL-6, IP-10. In words: Cytokine induction (IL-6, IP-10) in mice 6 hours after intravenous administration. The class given is in vivo. On the set-up: unit not given here. Particulars: intravenous 0.5 mpk. The procedure, abridged: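 IL-6 and IP-10 concentrations determined 6 hours after a single intravenous 0.5 mpk dose of lipid nanoparticle formulation in mice, with MC3 and PBS as comparators.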

Where [5] appears, read: Table 1A, lipid:DSPC:cholesterol:PEG-DMG 50:10:38.5:1.5 mol %.
The mark [6] stands for this setting: Table 1D, compositions for subcutaneous administration, # formulated with hEPO mRNA.
Where [7] appears, read: Table 1B, formulated with hEPO mRNA.

Each structure is given as a SMILES string.

15 compounds from patent publication US10857105B2, “Compounds and compositions for intracellular delivery of therapeutic agents” (ModernaTX, Inc., priority 2017, dated 2020) can be followed below.

Turning to `CCCCCCCCCC(=O)OC(C)CCCCCCN(CCO)CCCCCCCC(=O)OC(CCCCCCCC)CCCCCCCC` (stereo not drawn) [Compound 98, 8-((8-(Heptadecan-9-yloxy)-8-oxooctyl)(2-hydroxyethyl)amino)octan-2-yl decanoate], in data set [1], the concentration at 6 h was found to be 24800 ng/g and the concentration at 24 h was 13600 ng/g. Moreover, the “Novel lipid/MC3 ratio, i.v.” value in the data set with luciferase (Luc) mRNA is 3.16. In data set [2] (setting [5]), the EE is recorded as 94.4%. The Size in data set [3] (setting [6]) was determined as 74.8 nm.

Regarding `CCCCC/C=C\C/C=C\CCCCCCCCN(CCO)CCCCCCCC(=O)OCCCCCCCCC` [Compound 136, Nonyl 8-((2-hydroxyethyl)((9Z,12Z)-octadeca-9,12-dien-1-yl)amino)octanoate], in data set [4], the “Lipid Purity, t = 96 h, 25° C.” value came to 93.17%; the “Lipid Purity, t = 96 h, 37° C.” value is reported as 93.86%; the “Lipid Purity, t = 0” value stood at 91.81%. Moreover, in the data set on modified luciferase, the “Total Flux, Femur” value is 6.60E+05; the “Total Flux, Liver” value was determined as 1.34E+08; the “Total Flux, Lung” value was determined as 8.91E+05; the “Total Flux, Spleen” value came out at 2.77E+07. Besides, in the data set with IL-6, IP-10, the “Cytokine induction, IL-6” value came out at 28.69 and the “Cytokine induction, IP-10” value is reported as 887.91. The EE in data set [2] (setting [5]) is 90.9%.

Take `CCCCCCCCCOC(=O)CCCCCCCN(CCO)CCCCCCCC(=O)OC(CCC1CC1CCCC)CCC1CC1CCCC` (stereo not drawn) [Compound 160, 1,5-Bis(2-butylcyclopropyl)pentan-3-yl 8-((2-hydroxyethyl)(8-(nonyloxy)-8-oxooctyl)amino)octanoate]: in data set [1], the concentration at 6 h stood at 51.5 ng/g and the concentration at 24 h turned out to be 0 ng/g. This compound showed an EE in data set [2] (setting [5]) of 94.0%. In data set [3] (setting [5]), this compound returned a Size of 89.0 nm.

In data set [1], `CCCCCCCCC(CCCCCCCC)OC(=O)CCCCCCCN(CCO)C(C)CCCCCCCCOC(=O)CCCCCCC` (stereo not drawn) [Compound 161, Heptadecan-9-yl 8-((2-hydroxyethyl)(10-(octanoyloxy)decan-2-yl)amino)octanoate] showed a concentration at 6 h of 187 ng/g and a concentration at 24 h of 0 ng/g. In data set [2] (setting [5]), this compound came in with an EE of 94.3%. Further, in data set [3] (setting [5]), the Size is on record as 67.6 nm.

For `CCCCCCCCC(CCCCCCCC)C(=O)OCCCCCCCN(CCO)C(C)CCCCCCCCOC(=O)CCCCCCC` (stereo not drawn) [Compound 162, 7-((2-Hydroxyethyl)(10-(octanoyloxy)decan-2-yl)amino)heptyl 2-octyldecanoate], in data set [1], the concentration at 6 h turned out to be 261 ng/g and the concentration at 24 h is 0 ng/g. Further, in data set [2] (setting [5]), the EE was determined as 94.1%. Besides, the Size in data set [3] (setting [5]) is 72.7 nm.

In data set [1], `CCCCCCCCCOC(=O)C(C)CCCCCCN(CCO)CCCCCCCOC(=O)C(CCCCCCCC)CCCCCCCC` (stereo not drawn) [Compound 163, 7-((2-Hydroxyethyl)(7-methyl-8-(nonyloxy)-8-oxooctyl)amino)heptyl 2-octyldecanoate] registered a concentration at 6 h of 32100 ng/g and a concentration at 24 h of 17900 ng/g. For the same compound, the “Novel lipid/MC3 ratio, i.v.” value with luciferase (Luc) mRNA came out at 3.45. Moreover, the EE in data set [2] (setting [5]) is 93.2%. In addition, in data set [3] (setting [5]), the Size came out at 88.3 nm. For the same compound, the Size in data set [3] (setting [6]) came out at 78.0 nm.

In data set [1], `CCCCCCCCCOC(=O)C(C)CCCCCCN(CCO)CCCCCCCC(=O)OC(CCCCCCCC)CCCCCCCC` (stereo not drawn) [Compound 164, Nonyl 8-((8-(heptadecan-9-yloxy)-8-oxooctyl)(2-hydroxyethyl)amino)-2-methyloctanoate] had a concentration at 6 h of 36000 ng/g and a concentration at 24 h of 24200 ng/g. For the same compound, the “Novel lipid/MC3 ratio, i.v.” value with luciferase (Luc) mRNA is 1.24. Further, the EE in data set [2] (setting [5]) amounted to 91.2%. In data set [3] (setting [5]), this compound yielded a Size of 84.5 nm. Moreover, the Size in data set [3] (setting [6]) was determined as 75.7 nm.

Consider `CCCCCCCCCC(=O)OC(C)CCCCCCN(CCO)CCCCCCCOC(=O)C(CCCCCCCC)CCCCCCCC` (stereo not drawn) [Compound 165, 7-((7-(Decanoyloxy)octyl)(2-hydroxyethyl)amino)heptyl 2-octyldecanoate], for which the concentration at 6 h in data set [1] was 26900 ng/g. Further, the concentration at 24 h in data set [1] is 11700 ng/g. Besides, the “Novel lipid/MC3 ratio, i.v.” value with luciferase (Luc) mRNA is listed as 2.12. This compound also yielded an EE in data set [2] (setting [5]) of 92.9%. In addition, the results for the Size in data set [3] (setting [5]) and in data set [3] (setting [6]) were 84.6 nm and 74.3 nm, respectively.

In data set [1], `CCCCCCCCCC(C)(O)CCCCCCCCN(CCO)CCCCCCCC(=O)OC(CCCCCCCC)CCCCCCCC` (stereo not drawn) [Compound 171, Heptadecan-9-yl 8-((9-hydroxy-9-methyloctadecyl)(2-hydroxyethyl)amino)octanoate] registered a concentration at 6 h of 47000 ng/g and a concentration at 24 h of 32800 ng/g. Moreover, the EE in data set [2] (setting [5]) came out at 85.0%. In data set [3] (setting [5]), this compound gave a Size of 100.5 nm.

In the case of `CCCCCCCCC(CCCCCCCC)OC(=O)CCCCCCCN(CCO)CCCCCCCC(=O)O[C@H](C)CCCCCCCC` [Compound 172, (R)-Decan-2-yl 8-((8-(heptadecan-9-yloxy)-8-oxooctyl)(2-hydroxyethyl)amino)octanoate], in data set [1], the concentration at 6 h was found to be 16000 ng/g and the concentration at 24 h is 2990 ng/g. The EE in data set [2] (setting [5]) was determined as 95.4%. In data set [3] (setting [5]), the Size came to 77.3 nm.

In data set [1], `CCCCCCCCCOC(=O)CCCCCCCN(CCO)CCCCCCCC(=O)OC(COCCCCCC)COCCCCCC` [Compound 183, 1,3-Bis(hexyloxy)propan-2-yl 8-((2-hydroxyethyl)(8-(nonyloxy)-8-oxooctyl)amino)octanoate] yielded a concentration at 6 h of 69.9 ng/g and a concentration at 24 h of 0 ng/g. For the same compound, in data set [2] (setting [5]), the EE is 32.3%. In data set [3] (setting [5]), this compound gave a Size of 245.3 nm.

`CCCCCCCCC(CCCCCCCC)OC(=O)CCCCCCCN(CCO)CCCCCCCC(=O)OCC(C)CCCCCCC` (stereo not drawn) [Compound 184, Heptadecan-9-yl 8-((2-hydroxyethyl)(8-((2-methylnonyl)oxy)-8-oxooctyl)amino)octanoate] came in with a concentration at 6 h in data set [1] of 260 ng/g. The concentration at 24 h in data set [1] worked out at 0 ng/g. Moreover, the EE in data set [2] (setting [5]) worked out at 94.2%; in data set [2] (setting [7]), 96.5%. The Size is 77.2 nm in data set [3] (setting [5]) and 85.8 nm in data set [3] (setting [7]).

As to `CCCCCCCCCCCOC(=O)CCCCCN(CCO)CCCCCC(=O)OC(CCCCCCCCCC)CCCCCCCCCC` [Compound 185, Henicosan-11-yl 6-((2-hydroxyethyl)(6-oxo-6-(undecyloxy)hexyl)amino)hexanoate], in data set [1], the concentration at 6 h was 31200 ng/g and the concentration at 24 h was found to be 27000 ng/g. Further, the EE in data set [2] (setting [5]) is on record as 98.3%. The Size in data set [3] (setting [5]) stood at 69.6 nm.

In data set [1], `CCCCCCCOC(=O)CCCCCCCCCN(CCO)CCCCCCCCCC(=O)OC(CCCCCC)CCCCCC` [Compound 186, Heptyl 10-((2-hydroxyethyl)(10-oxo-10-(tridecan-7-yloxy)decyl)amino)decanoate] showed a concentration at 6 h of 42.8 ng/g and a concentration at 24 h of 0 ng/g. Besides, the EE in data set [2] (setting [5]) was determined as 87.2%. In data set [3] (setting [5]), the Size came out at 92.2 nm.

As for `CCCCCCCCCOC(=O)CCCCCCCN(CCO)CCCCCCCC(=O)OCCCCCCCCC` [compound 138, Dinonyl 8,8′-((2-hydroxyethyl)azanediyl)dioctanoate], in data set [4], the “Lipid Purity, t = 96 h, 25° C.” value was found to be 98.64%; the “Lipid Purity, t = 96 h, 37° C.” value was 97.82%; the “Lipid Purity, t = 0” value worked out at 97.59%. For the same compound, in the data set with modified luciferase, the “Total Flux, Femur” value is reported as 1.58E+05; the “Total Flux, Liver” value is recorded as 3.66E+06; the “Total Flux, Lung” value is on record as 9.47E+04; the “Total Flux, Spleen” value stood at 4.04E+06. Also, in the data set on IL-6, IP-10, the “Cytokine induction, IL-6” value amounted to 23.38 and the “Cytokine induction, IP-10” value worked out at 172.56. The same compound displayed an EE in data set [2] (setting [5]) of 91.8%.
